Measurements from paper PMC2901914 (Neuron, 2010).

Target: T1, mouse I7 receptor (mI7) (Mus musculus, UniProt Q9QWU6)
T1 sequence (Q9QWU6 1-327): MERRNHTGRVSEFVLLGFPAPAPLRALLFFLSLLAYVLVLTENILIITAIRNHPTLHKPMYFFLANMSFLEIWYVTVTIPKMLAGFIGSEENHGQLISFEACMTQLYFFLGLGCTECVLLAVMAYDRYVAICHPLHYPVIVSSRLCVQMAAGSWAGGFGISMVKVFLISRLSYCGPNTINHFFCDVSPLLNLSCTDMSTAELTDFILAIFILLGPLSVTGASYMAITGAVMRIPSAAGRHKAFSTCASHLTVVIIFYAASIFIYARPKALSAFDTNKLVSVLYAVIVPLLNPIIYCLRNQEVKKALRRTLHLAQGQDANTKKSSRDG

EC50 [µM] | Structure (SMILES)
~63.1 | CCCCCCCC=O [8al, octanal]
~6.3 | CCCCCCC=O [7al, heptanal]
